Measurements as given in patent publication US20240343761A1, “APELINERGIC MACROCYCLES AND USES THEREOF” (priority 2021, published 2024).
Read-outs that look alike come from different tables or passages of the source. Numbered stars: 1 amine (or outer) side, 2 acyl side, 3 side chain; on linkers, the order of the positions; unused ones are H or OH. Bridge positions count the residues as written; N and C are the ends. Square brackets hold non-standard residues; d marks the D form. Peptide text beside a SMILES is read from it. * marks the point of attachment. X1 = O=C([C@H](Cc1ccc(OCc2ccccc2)c(C2CCCC2)c1)N[*:1])[*:2]; X9 = O=C([C@H](CCCNCCC=[*:3])N[*:1])[*:2]; X2 = Cc1ccc2nc(-c3ccc(N*)cc3)sc2c1; dAllylGly = C=CC[C@@H](N)C(=O)O; AllylGly = C=CC[C@H](N)C(=O)O; pGlu = O=C1CC[C@@H](C(=O)O)N1; Nle = CCCC[C@H](N)C(=O)O; Ava = NCCCCC(=O)O; Bn = c1ccc(C*)cc1

Key:
[1] = target: T1, human APJ (hAPJ) (Homo sapiens, UniProt P35414); assay: Competitive radioligand binding ([125I][Nle75,Tyr77][Pyr1]-Ape13) on membranes of HEK293 cells stably expressing human APJ
T1 construct: expressed in transfected cells; cell membranes
T1 sequence (P35414 1-380): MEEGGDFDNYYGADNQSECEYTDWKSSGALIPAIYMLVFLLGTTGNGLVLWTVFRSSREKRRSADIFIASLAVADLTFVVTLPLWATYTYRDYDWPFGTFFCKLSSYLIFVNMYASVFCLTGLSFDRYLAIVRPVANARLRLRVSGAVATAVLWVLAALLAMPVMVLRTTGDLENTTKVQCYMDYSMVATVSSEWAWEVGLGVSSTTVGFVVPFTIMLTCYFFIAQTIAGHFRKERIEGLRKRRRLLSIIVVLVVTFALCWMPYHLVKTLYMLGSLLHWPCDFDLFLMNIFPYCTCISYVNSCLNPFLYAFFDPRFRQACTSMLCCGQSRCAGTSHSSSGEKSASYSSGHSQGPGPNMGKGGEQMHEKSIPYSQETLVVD
Protocol: HEK293 cells stably expressing YFP-tagged human APJ were cultured in DMEM medium supplemented with 10% FBS, at 37° C. under a humid atmosphere maintaining 5% CO2. Antibiotic G418 (400 μg/mL) was added to maintain a selection pressure for APJ-expressing cells while penicillin/streptomycin (0.1%) were used to prevent bacterial contamination.
Binding experiments were performed on cell membranes of HEK293 stably expressing the YFP-tagged human APJ receptor. Cells were frozen at −80° C. for storage and quickly thawed right before the experiments (1 min at 37° C.). […] The precipitate (cell membranes) was suspended in binding buffer (50 mM Tris-HCl, 0.2% BSA, pH 7.4). Binding assays were run in 96-well plates. […] (820 Ci/mmol)^3 and test ligand with a range of concentrations from 10^−1 to 10^−11 M in a total volume of 200 μL for 1 h at room temperature.
The incubation mixtures were filtered through a glass fiber filter (Millipore, pre-absorbed of PEI 0.5% for 2 h at 4° C.) to remove unbound ligands, and the filter membranes were washed three times with 170 μL cold binding buffer (4° C.). The γ emission was measured using a 1470 Wizard γ-counter from PerkinElmer (Waltham, USA) (80% efficiency).

[2] = target: T2, hAPJ receptor (Homo sapiens, UniProt P35414); assay: BRET-based β-arrestin2 recruitment assay in HEK293 cells; format: cell-based
T2 construct: expressed in transfected cells; host or cells: HEK293, transient transfection with PEI
T2 sequence (P35414 1-380): T1 sequence (P35414 1-380)
Protocol: (§1) HEK293 cells were cultivated in high glucose DMEM medium having 10% FBS, 100 U/mL penicillin/streptomycin, 2 mM glutamine, and 20 mM HEPES at 37° C. in T175 flasks under humidified chamber at 5% CO2. […] Cells were then washed with phosphate-buffered saline (PBS) and 90 μL Hanks' balanced salt solution was added in each well. Then, cells were stimulated with analogs at concentrations ranging from 10^−5 M to 10^−11 M for 5 min at 37° C. (Gαi1) or for 30 min at room temperature (β-arrestin2). After stimulation, 5 μM of coelanterazine 400A was added to each well and the plate was read using the BRET^2 filter set of a GeniosPro plate reader (Tecan, Austria). The BRET ratio was determined as GFP10em/RlucIIem. Data were plotted and EC50 values were determined using GraphPad Prism 8. Each data point represents the mean±SEM of at least three different experiments each done in triplicate.

[3] = target: T2, hAPJ receptor; assay: BRET-based Gαi1 activation assay in HEK293 cells; format: cell-based
Protocol: as §1

CCCC[C@H](NC(=O)[C@@H]1CCCN1C(=O)CNC(=O)[C@H](CCCCN)NC(=O)[C@H](Cc1c[nH]cn1)NC(=O)[C@@H]1CC=CC[C@H](NC(=O)[C@@H]2CCC(=O)N2)C(=O)N2CCC[C@H]2C(=O)N[C@@H](C)C(=O)N[C@@H](CC(C)C)C(=O)N1)C(=O)N1CCC[C@H]1C(=O)N[C@@H](Cc1ccccc1)C(=O)O [Compound 6, Pyr-c[X-P-A-L-X]c-H-K-G-P-Nle-P-F]
Ki ([1]; Ki binding): > 10000 nM

CCCC[C@H](NC(=O)[C@@H]1CCCN1C(=O)CNC(=O)[C@H](CCCCN)NC(=O)[C@@H]1CC=CC[C@H](NC(=O)[C@@H]2CCC(=O)N2)C(=O)N2CCC[C@H]2C(=O)N[C@@H](C)C(=O)N[C@@H](CC(C)C)C(=O)N[C@@H](CO)C(=O)N1)C(=O)N1CCC[C@H]1C(=O)N[C@@H](Cc1ccccc1)C(=O)O [Compound 7, Pyr-c[X-P-A-L-S-X]c-K-G-P-Nle-P-F] ([pGlu][AllylGly]PALS[AllylGly]KGP[Nle]PF-OH; staple 2-7)
Ki ([1]; Ki binding): > 10000 nM

N=C(N)NCCC[C@@H]1NC(=O)[C@@H](N)CC=CCCNCCC[C@@H](C(=O)N2CCC[C@H]2C(=O)N[C@@H](Cc2ccc(OCc3ccccc3)cc2)C(=O)O)NC1=O [Compound 51, NH2-c[X-R-Orn(N-butenyl)]-P-Tyr(Obn)] (H-[AllylGly]R[X9]PY(Bn)-OH; staple 1-3)
Ki ([1]; Ki binding): > 10000 nM

CCCC[C@@H]1NC(=O)[C@@H]2CCCN2C(=O)[C@H](NC(=O)[C@H](CCCCN)NC(=O)[C@H](Cc2c[nH]cn2)NC(=O)[C@H](CO)NC(=O)[C@H](CC(C)C)NC(=O)[C@H](CCCNC(=N)N)NC(=O)[C@@H]2CCCN2C(=O)[C@H](CCCNC(=N)N)NC(=O)[C@@H]2CCC(=O)N2)CC=CC[C@@H](C(=O)O)NC(=O)[C@@H]2CCCN2C1=O [Compound 9, Pyr-R-P-R-L-S-H-K-[dX-P-Nle-P-X]] ([pGlu]RPRLSHK[dAllylGly]P[Nle]P[AllylGly]-OH; staple 9-13)
Ki [1]: 52 ± 15 nM

CCCC[C@@H]1NC(=O)[C@@H]2CCCN2C(=O)[C@@H](NC(=O)[C@H](CCCCN)NC(=O)[C@H](Cc2c[nH]cn2)NC(=O)[C@H](CO)NC(=O)[C@H](CC(C)C)NC(=O)[C@H](CCCNC(=N)N)NC(=O)[C@@H]2CCCN2C(=O)[C@H](CCCNC(=N)N)NC(=O)[C@@H]2CCC(=O)N2)CC=CC[C@H](C(=O)O)NC(=O)[C@@H]2CCCN2C1=O [Compound 10, Pyr-R-P-R-L-S-H-K-[X-P-Nle-P-dX]] ([pGlu]RPRLSHK[AllylGly]P[Nle]P[dAllylGly]-OH; staple 9-13)
Ki [1]: 187 ± 20 nM

CCCC[C@H](NC(=O)[C@@H]1CCCN1C(=O)CCCCNC(=O)[C@@H]1CC=CC[C@H](N)C(=O)N[C@@H](CCCNC(=N)N)C(=O)N[C@@H](CC(C)C)C(=O)N[C@@H](CO)C(=O)N1)C(=O)O [Compound 32, NH2-c[X-R-L-S-X]c-5Ava-P-Nle] (H-[AllylGly]RLS[AllylGly][Ava]P[Nle]-OH; staple 1-5)
Ki ([1]; Ki binding): > 10000 nM

CCCC[C@H](NC(=O)[C@@H]1CCCN1C(=O)CNC(=O)[C@@H]1CC=CC[C@H](NC(=O)[C@@H]2CCC(=O)N2)C(=O)N2CCC[C@H]2C(=O)N[C@@H](C)C(=O)N[C@@H](CC(C)C)C(=O)N[C@@H](CO)C(=O)N[C@@H](Cc2c[nH]cn2)C(=O)N1)C(=O)N1CCC[C@H]1C(=O)N[C@@H](Cc1ccccc1)C(=O)O [Compound 8, Pyr-c[X-P-A-L-S-H-X]c-G-P-Nle-P-F] ([pGlu][AllylGly]PALSH[AllylGly]GP[Nle]PF-OH; staple 2-8)
Ki ([1]; Ki binding): > 10000 nM

CC(C)C[C@@H]1NC(=O)[C@H](CCCNC(=N)N)NC(=O)[C@@H](N)CC=CC[C@@H](C(=O)N[C@@H](CCCCN)C(=O)O)NC(=O)[C@H](CO)NC1=O [Compound 30, NH2-c[X-R-L-S-X]c-K] (H-[AllylGly]RLS[AllylGly]K-OH; staple 1-5)
Ki ([1]; Ki binding): > 10000 nM

CCCC[C@H](NC(=O)[C@@H]1CCCN1C(=O)[C@@H]1CCCCNC(=O)CC[C@H](NC(=O)[C@H](CC(C)C)NC(=O)[C@H](CCCNC(=N)N)NC(=O)[C@@H]2CCCN2C(=O)[C@H](CCCNC(=N)N)NC(=O)[C@H](CCC(N)=O)NC(=O)[C@H](CCCNC(=N)N)NC(=O)[C@H](CCCNC(=N)N)NC(=O)[C@H](Cc2ccccc2)NC(=O)[C@H](CCCCN)NC(C)=O)C(=O)N[C@@H](Cc2c[nH]cn2)C(=O)N[C@@H](CCCCN)C(=O)N1)C(=O)N1CCC[C@H]1C(=O)N[C@@H](CC(=O)Nc1ccc(-c2nc3ccc(C)cc3s2)cc1)C(=O)O [Compound 68, Ac-K-F-R-R-Q-R-P-R-L-[E-H-K-K]-P-Nle-P-B2] (Ac-KFRRQRPRLEHKKP[Nle]PD(X2)-OH; lactam 10-13)
Ki ([1]; Ki binding): 4 ± 1 nM

CCCC[C@H](NC(=O)[C@@H]1CCCN1C(=O)CNC(=O)[C@H](CCCCN)NC(=O)[C@H](Cc1c[nH]cn1)NC(=O)[C@H](CO)NC(=O)[C@@H]1CC=CC[C@H](NC(=O)[C@@H]2CCC(=O)N2)C(=O)N2CCC[C@H]2C(=O)N[C@@H](C)C(=O)N1)C(=O)N1CCC[C@H]1C(=O)N[C@@H](Cc1ccccc1)C(=O)O [Compound 5, Pyr-c[X-P-A-X]c-S-H-K-G-P-Nle-P-F] ([pGlu][AllylGly]PA[AllylGly]SHKGP[Nle]PF-OH; staple 2-5)
Ki ([1]; Ki binding): > 10000 nM

N=C(N)NCCC[C@H](N)C(=O)N[C@H]1CCCCNC(=O)CC[C@@H](C(=O)N[C@@H](Cc2ccc(OCc3ccccc3)cc2)C(=O)O)NC(=O)[C@@H]2CCCN2C1=O [Compound 58, NH2-R-c[K-P-E]-Tyr(Obn)] (H-RKPEY(Bn)-OH; lactam 2-4)
Ki ([1]; Ki binding): > 10000 nM

CCCC[C@H](NC(=O)[C@@H]1CCCN1C(=O)[C@@H]1CCCCNC(=O)CC[C@H](NC(=O)[C@H](CC(C)C)NC(=O)[C@H](CCCNC(=N)N)NC(=O)[C@@H]2CCCN2C(=O)[C@H](CCCNC(=N)N)NC(=O)[C@H](CCC(N)=O)NC(=O)[C@H](CCCNC(=N)N)NC(=O)[C@H](CCCNC(=N)N)NC(=O)[C@H](Cc2ccccc2)NC(=O)[C@H](CCCCN)NC(C)=O)C(=O)N[C@@H](Cc2c[nH]cn2)C(=O)N[C@@H](CCCCN)C(=O)N1)C(=O)N1CCC[C@H]1C(=O)N[C@@H](Cc1ccc(OCc2ccccc2)c(C2CCCC2)c1)C(=O)O [Compound 63, Ac-K-F-R-R-Q-R-P-R-L-[E-H-K-K]-P-Nle-P-cypTyrOBn] (Ac-KFRRQRPRLEHKKP[Nle]P[X1]-OH; lactam 10-13)
EC50 [2]: 63.6 nM | EC50 [3]: 5.48 nM

CC(C)C[C@@H]1NC(=O)[C@@H]2CCCN2C(=O)[C@@H](NC(=O)[C@H](CO)NC(=O)[C@H](CCCNC(=N)N)NC(=O)[C@H](CCCNC(=N)N)NC(=O)[C@@H]2CCC(=O)N2)CCC(=O)NCCCC[C@@H](C(=O)N[C@@H](CCCNC(=N)N)C(=O)N[C@H](C(=O)N2CCC[C@H]2C(=O)N[C@@H](Cc2ccccc2)C(=O)N2C[C@H](OCc3ccccc3)C[C@H]2C(=O)O)C(C)C)NC(=O)[C@H](Cc2c[nH]cn2)NC1=O [Compound 93, Pyr-R-R-S-[E-P-L-H-K]-R-V-P-F-Hyp(OBn)]
EC50 [2]: 2200 ± 132 nM | EC50 [3]: 47 ± 3 nM

CCCC[C@H](NC(=O)[C@@H]1CCCN1C(=O)CNC(=O)[C@H](CCCCN)NC(=O)[C@@H]1CC=CC[C@H](NC(=N)N)C(=O)N[C@@H](CCCNC(=N)N)C(=O)N[C@@H](CC(C)C)C(=O)N[C@@H](CO)C(=O)N1)C(=O)N1CCC[C@H]1C(=O)N[C@@H](Cc1ccccc1)C(=O)O [Compound 23, Guanidine-c[X-R-L-S-X]c-K-G-P-Nle-P-F]
Emax ([2]; HEK293, Table V, read-out: ß-arr2 Emax): 92% | Emax ([3]; HEK293, Table V, read-out: Gαi1 Emax): 103%

CCCC[C@H](NC(=O)[C@@H]1CCCN1C(=O)CNC(=O)[C@H](CCCCN)NC(=O)[C@@H]1CCN(S(=O)(=O)c2ccccc2[N+](=O)[O-])CC=CC[C@H](NC(=O)[C@H](CCCNC(=N)N)NC(=O)[C@@H]2CCC(=O)N2)C(=O)N[C@@H](CCCNC(=N)N)C(=O)N[C@@H](CC(C)C)C(=O)N[C@@H](CO)C(=O)N1)C(=O)N1CCC[C@H]1C(=O)N[C@@H](Cc1ccccc1)C(=O)O [Compound 16, Pyr-R-c[X-R-L-S-Alnb]c-K-G-P-Nle-P-F]
Emax ([2]; HEK293, read-out: ß-arr2 Emax): 98% | Emax ([3]; HEK293, read-out: Gαi1 Emax): 102%
